Values belong to the compound of their own block, whether it stands above or below them.
Key:
APC = APC (Xenopus laevis, UniProt A0A1L8ESF3); assay: Cyclin B1-luciferase reporter degradation (luciferase assay) in mitotic Xenopus egg extract; type: biochemical; details: mitotic Xenopus extract
Xenopus APC = assay: ^3H-TAME binding assay in interphase extract; details: 200 nM ^3H-TAME
Source text: The beads were washed quickly twice with XB high salt and twice with XB.

APC/C = assay: ^35S-labeled substrate degradation in mitotic Xenopus egg extract; type: biochemical; details: 200 μM
Experimental: Mitotic extracts were pretreated with DMSO or compounds for 10 min. Substrates were expressed and ^35S-methionine labeled using the TNT system from Promega and added to the extract at 10% final volume.
Substrates consisted of human full length cyclin B1, cyclin A2, securin, Nek2A, or an N-terminal fragment of human cyclin B1 (residues 1-88). Each substrate was amplified with primers by PCR to allow T7-dependent transcription of the PCR product. Substrates were expressed and labeled with ^35S-methionine (Perkin Elmer NEG709A500UC) using the TNT system from Promega. […] The in vitro-translation reaction was then added to the mitotic Xenopus extract at 10% final volume. Extracts were then incubated at 24° C., with shaking at 1250 rpm, with samples taken at indicated times. Reactions were quenched with SDS sample buffer and processed for SDS-PAGE and phosphoimaging (Bio-Rad PMI) and quantification was performed using Quantity One software (Bio-Rad).
A 35S-labeled cyclin B1 protein was expressed in reticulocyte lysate, and a 10% volume of this material was added to mitotically arrested Xenopus egg extract, in the presence of DMSO or different concentrations of inhibitors. Aliquots were taken at 0 and 20 minutes, and samples separated by SDS-PAGE and radioactivity measured by quantitative phosphorimager analysis.

APC/C-Cdc20 = APC/C-Cdc20 (Xenopus laevis, UniProt Q6DFD4); assay: Kinetics of APC/C-Cdc20-dependent ubiquitination of cyclin B1 N-terminal fragment; type: biochemical; details: methylated ubiquitin
Experimental: Measurements of kinetics of ubiquitination were performed using an N-terminal fragment of cyclin B1 and APC/C isolated from Xenopus extract, exactly as previously described (Zeng, X. & King, R. W. Nat Chem Biol 8, 383-392, (2012)).
Kinetic analysis of APC^Cdc20 reactions. Endogenous APC^Cdc20 was isolated from Xenopus extract as described above. The ubiquitination mixture was prepared as described in Cdc20 ubiquitination assay with the exception that 60 μM methylated ubiquitin was used in place of WT ubiquitin. CycB-NT was diluted into the mixture to final concentrations of 1 μM, 500 nM, 250 nM, 125 nM and 62.5 nM prior to the reaction. For each reaction, 2.5 μl beads were mixed with 20 μl ubiquitination mixture and left on a shaker at RT for 30 seconds. The reaction was stopped by adding 7 μl hot 4×LDS sample buffer (Invitrogen NP0007)+[…]. Band intensity of the mono-, di-, and tri-ubiquitinated cycB-NT was quantitated with Image J and fitted to a hyperbolic equation by nonlinear regression.

RPE1-H2B-GFP cells = assay: Fluorescence live cell imaging with survival (Cox) analysis, RPE1; type: cell-based, human; details: proTAME 6 μM; for % rate of mitotic exit: relative to DMSO control, Cox model, apcin/apcin-M 25 μM; for Median mitotic duration: apcin or apcin-M 25 μM
Experimental: RPE1-H2B-GFP or U2OS-H2B-GFP cells were plated in 24-well glass-bottom plates 18-24 hours prior to siRNA transfection using RNAiMax (Invitrogen). After treatment with compound(s), DIC and GFP images were captured at 6-minute intervals for 45 hours. Movies were manually analyzed using Nikon Elements software or Image J.
RPE1-H2B-GFP or U2OS-H2B-GFP cells were plated in 24-well glass-bottom plates (Greiner BioOne, 662892) 18-24 hours prior to siRNA transfection using RNAiMax (Invitrogen). Plates were inserted into a covered chamber supplied with humidified 5% CO2 and mounted onto a motorized microscope stage (Prior Scientific). DIC and FITC images were captured at 6 minute intervals for 45 hours using a Nikon Ti inverted fluorescence microscope fitted with a 37° C. enclosed incubation chamber and using a 20× Plan Apo 0.75 NA objective lens. A Hamamatsu ORCA cooled CCD camera collected the images with 2×2 binning using Nikon Elements software (version 3.0). Movies were manually analyzed using Nikon Elements software or ImageJ. Mitotic duration was defined as the time from nuclear envelope breakdown until anaphase, in the case of normal mitosis, or until exit from prolonged mitosis as indicated by cytoplasmic blebbing accompanied by changes in chromatin as detected by H2B-GFP.
In order to detect differences in mitotic duration among cells in the live-cell imaging screen, a stratified Cox proportional hazards model (Cox, D. R. Regression models and life tables. J Royal Statistics Soc B34, 187-220, (1972)) was fit to censored mitotic duration times (where cells that are not observed exiting mitosis or dying in mitosis are censored at the last known time in mitosis). The Cox proportional hazards model is a semiparameteric approach to modeling time-to-event data, in which covariates are assumed to have constant proportional effects over time relative to a baseline hazard function that can take any form. In this case, stratification on “person” (the individual who analyzed the movie) and “date” (the date the assay was run) allow the baseline hazard function to differ across experimental blocks, but assume a fixed effect of treatment across experimental blocks. The model is thus: hi(t|Z=j)=hj(t)exp(β1×apcini+β2×apcinMi+β3×proTAMEi+β4×proTAMEi:apcinMi+β5×proTAMEi:apcini), j=1 . . . 4 where hi(t) is the hazard function of cell i at time t, hj(t) is the baseline hazard for strata j (with 4 levels, one for each person and date combination), apcini, proTAMEi, and apcinMi are indicator variables for presence or absence of the compounds apcin, proTAME, and apcin-M, respectively in cell i, proTAMEi:apcini is an indicator variable that is 1 if both proTAME and apcin are present in cell i, and 0 otherwise, and proTAMEi:apcinMi is a similar indicator variable for proTAME+apcin-M. In this model, […] represent the effects of apcin, apcin-M, and proTAME alone, while β4 and β5 represent the additional non-additive effect of the compounds beyond what is predicted from the combination of effects of the two compounds alone. This model was fit separately to cells treated with control siRNA or Mad2 siRNA. All statistical analysis was carried out in R 3.0.0 using the functions available as part of the survival package.
In this model, the β coefficients represent the log hazard ratios for exiting mitosis between treated and untreated cells. However, for ease of interpretation the β coefficients are exponentiated to convert them to normal hazard ratios, and then multiplied by 100 to convert to percentages relative to DMSO. These hazard ratios, which are referred to as mitotic exit rate, represent the relative probability that a treated cell in mitosis at time t will exit mitosis in the next time interval compared to an untreated cell.
For ease of interpretation, the treatment effects are presented relative to DMSO for all individual compounds and compound combinations. […]

U2OS-H2B-GFP cells = assay: Fluorescence live cell imaging with survival (Cox) analysis, U2OS; type: cell-based, human; details: proTAME 12 μM
Experimental: Mitotic duration and cell fate were determined by manual inspection of the movies and plotted as Kaplan-Meier curves. The hatch marks on the Kaplan-Meier curved indicate mitotic duration endpoints of censored cells. Includes the combined results of five independent experiments. […] Pairwise comparison between proTAME and proTAME+apcin-M tested using a Cox proportional hazards model stratified by date, using data from only the experimental blocks in which both proTAME and proTAME+apcin were tested.
Movies were manually analyzed using Nikon Elements software or Image J.
Plates were inserted into a covered chamber supplied with humidified 5% CO2 and mounted onto a motorized microscope stage (Prior Scientific). […] A Hamamatsu ORCA cooled CCD camera collected the images with 2×2 binning using Nikon Elements software (version 3.0). Movies were manually analyzed using Nikon Elements software or ImageJ. Mitotic duration was defined as the time from nuclear envelope breakdown until anaphase, in the case of normal mitosis, or until exit from prolonged mitosis as indicated by cytoplasmic blebbing accompanied by changes in chromatin as detected by H2B-GFP.
The Cox proportional hazards model is a semiparameteric approach to modeling time-to-event data, in which covariates are assumed to have constant proportional effects over time relative to a baseline hazard function that can take any form. In this case, stratification on “person” (the individual who analyzed the movie) and “date” (the date the assay was run) allow the baseline hazard function to differ across experimental blocks, but assume a fixed effect of treatment across experimental blocks. The model is thus: hi(t|Z=j)=hj(t)exp(β1×apcini+β2×apcinMi+β3×proTAMEi+β4×proTAMEi:apcinMi+β5×proTAMEi:apcini), j=1 . . . […] This model was fit separately to cells treated with control siRNA or Mad2 siRNA. All statistical analysis was carried out in R 3.0.0 using the functions available as part of the survival package.

Chain of APC (A0A1L8ESF3 entry or part of it): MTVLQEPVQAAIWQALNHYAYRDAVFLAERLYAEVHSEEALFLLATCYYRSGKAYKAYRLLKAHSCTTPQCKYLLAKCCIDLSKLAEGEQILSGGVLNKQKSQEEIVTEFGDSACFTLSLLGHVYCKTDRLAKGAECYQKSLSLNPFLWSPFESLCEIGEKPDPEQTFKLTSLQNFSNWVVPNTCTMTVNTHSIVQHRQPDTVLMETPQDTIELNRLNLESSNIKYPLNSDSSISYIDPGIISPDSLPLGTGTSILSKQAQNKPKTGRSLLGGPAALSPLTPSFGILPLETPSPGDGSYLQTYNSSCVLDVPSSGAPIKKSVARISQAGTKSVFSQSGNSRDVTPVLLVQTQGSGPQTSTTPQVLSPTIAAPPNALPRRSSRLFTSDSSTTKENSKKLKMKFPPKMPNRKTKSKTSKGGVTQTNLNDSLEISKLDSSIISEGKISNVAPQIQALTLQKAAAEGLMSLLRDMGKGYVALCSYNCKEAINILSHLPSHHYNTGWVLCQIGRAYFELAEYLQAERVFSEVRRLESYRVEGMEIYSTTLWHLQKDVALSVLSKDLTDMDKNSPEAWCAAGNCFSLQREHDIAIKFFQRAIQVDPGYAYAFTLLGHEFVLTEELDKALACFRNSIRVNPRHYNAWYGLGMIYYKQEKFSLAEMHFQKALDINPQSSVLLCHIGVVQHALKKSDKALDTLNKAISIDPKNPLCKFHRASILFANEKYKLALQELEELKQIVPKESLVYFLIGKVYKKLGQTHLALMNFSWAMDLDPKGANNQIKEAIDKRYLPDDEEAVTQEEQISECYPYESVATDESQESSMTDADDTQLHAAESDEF
Chain of APC (Q6DFD4 entry or part of it, further chain): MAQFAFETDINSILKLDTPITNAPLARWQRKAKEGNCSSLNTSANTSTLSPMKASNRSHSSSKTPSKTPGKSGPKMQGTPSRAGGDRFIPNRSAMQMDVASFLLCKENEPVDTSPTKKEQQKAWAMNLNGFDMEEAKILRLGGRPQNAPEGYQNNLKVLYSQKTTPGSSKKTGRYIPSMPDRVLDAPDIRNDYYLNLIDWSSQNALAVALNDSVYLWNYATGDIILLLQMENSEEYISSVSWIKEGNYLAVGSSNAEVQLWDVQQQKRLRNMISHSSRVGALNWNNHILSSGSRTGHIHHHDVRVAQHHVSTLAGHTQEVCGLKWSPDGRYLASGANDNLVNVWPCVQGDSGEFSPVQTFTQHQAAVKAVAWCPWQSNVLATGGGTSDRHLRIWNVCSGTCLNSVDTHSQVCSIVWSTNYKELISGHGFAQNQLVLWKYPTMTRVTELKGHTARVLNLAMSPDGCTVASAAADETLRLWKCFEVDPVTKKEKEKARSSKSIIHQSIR

Inhibition of cyclin B-luciferase proteolysis (APC): showed only low activity
Competition with ^3H-TAME for binding to Xenopus APC (Xenopus APC): did not
Compound: COC(=O)[C@H](CCCNC(=N)N)NC(C)=O [AAME, Acetyl-L-Arginine Methyl Ester]

Compound: NCCCOC(=O)NC(Nc1ncccn1)C(Cl)(Cl)Cl (stereo not shown) [apcin-A]
Activity on proteolysis of N-terminal ^35S-labeled fragment of cyclin B1 relative to apcin (APC/C): reduced activity

Compound: Cc1ncc([N+](=O)[O-])n1CCOC(=O)NC(Nc1ncccn1)C(Cl)(Cl)Cl (stereo not shown) [apcin]
Effect on Km and kcat of APC-dependent ubiquitination (APC/C-Cdc20): caused a significant increase (p=0.0039) in the Km (Ki=23 μM) of the reaction but no reduction in kcat
% rate of mitotic exit (RPE1-H2B-GFP cells; Mad2 siRNA): 57.38%
Median mitotic duration (RPE1-H2B-GFP cells; Table 3, control siRNA): 24
Median mitotic duration (RPE1-H2B-GFP cells; Table 3, mad2 siRNA): 19
% rate of mitotic exit (RPE1-H2B-GFP cells; control siRNA): 82.87%
Median mitotic duration (U2OS-H2B-GFP cells; Table 7, apcin or apcin-M 25 μM): 24
% rate of mitotic exit (U2OS-H2B-GFP cells; relative to DMSO control, Cox model, apcin/apcin-M 25 μM): 109.64%

From patent publication US9572788B2, “Cell permeable inhibitors of anaphase promoting complex” (President and Fellows of Harvard College, priority 2014, dated 2017)
